Among the data in patent US10633394B2, “Heterocyclic derivatives and use thereof” (C & C RESEARCH LABORATORIES, priority 2014, dated 2020) are IC50 values, retold here.

What all share (assay type): cell-based
The target in one experiment is T1, STAT3 (Homo sapiens, UniProt P40763).
T1 construct: plasmid pSTAT3-TA-luc), which contains a stably operating STAT3 promoter; endogenous in cells
The experiment in a line: STAT3 reporter gene (luciferase) assay in LNCaP stable cell line stimulated with IL-6. The note with it: LNCaP stable cell line (pSTAT3-TA-luc), IL-6 10 ng/mL, 24 hours. The protocol: 1-1) Experiment on the Inhibition of STAT3 Activity
A human prostate cancer cell line (LNCaP stable cell line; plasmid pSTAT3-TA-luc), which contains a stably operating STAT3 promoter, was cultured in RPMI1640 medium (Cat No. 11875, Life Technologies) containing 10% fetal bovine serum (FBS) (Cat No. SH30396, Thermo Scientific) and 150 μg/mL G-418 solution (Cat No. 04 727 894 001, Roche). The reporter gene assay using LNCaP stable cell line was performed in RPMI1640 medium containing 3% DCC-FBS without G-418 solution. LNCaP stable cells were plated in two (2) white 96-well plates with 30,000 cells/50 μL in each well. The cells were cultured at 37° C., under 5% CO2 for 24 hours, and then treated with the compounds listed in Examples which were diluted in various concentrations. Subsequently, IL-6 was added to each well with a final concentration of 10 ng/mL. Upon completion of the treatment with the compounds and IL-6, the cells were cultured at 37° C., under 5% CO2 for 24 hours. The plates were observed under microscope and drug precipitation and particular findings were investigated and recorded.
The luciferase assay and the cell viability assay were performed respectively with one of the two plates. For the luciferase assay, the liquid media in the 96-well plate was removed, and then, 20 μL of passive cell lysis buffer was added to each well. After shaking the plate for 30 minutes, luciferase activities of each well were measured in a PHERAstar™ microplate reader (BMG LABTECH) using a luciferase assay system (Cat No. E1501, Promega). For the cell viability assay, the 96-well plate was placed at room temperature for 30 minutes, added with 20 μL/well of CellTiter-Glo solution (Cat No. G7573, Promega), and shaken for 10 minutes in order to measure cytotoxicity caused by the compounds listed in Examples with a PHERAstar™ microplate reader (BMG LABTECH). Wells without 0.1% DMSO and stimulation were used as a negative control and wells with 0.1% DMSO and stimulation were used as a positive control.
The results of evaluation on the inhibitory effect of the compounds listed in the Examples on the dimerization of STAT3 and STAT1 obtained via the STAT3 and STAT1 reporter gene assays are shown in Table 6 below.

The subject of a further experiment is NCI-N87. The experiment in a line: Cell growth inhibition assay (CellTiter-Glo), stomach cancer cell line NCI-N87. The note with it: Homo sapiens; NCI-N87 cells, 96 hours. The protocol: (§1) The inhibitory effects of the compounds of the present invention against the growth of cancer cells were evaluated as shown below. The cancer cell lines including stomach cancer cell line (NCI-N87) and breast cancer cell line (MDA-MB-468) were cultured under the protocol provided by each supplier. Each type of cells to be used in experiments was sub-cultured in a 96-well plate by counting the exact number of cells using Tali™ Image-based Cytometer (Life Technologies). In a 96-well plate, NCI-N87 was employed with 5,000 cells/well; and MDA-MB-468 was employed with 10,000 cells/well. The cells were treated with the compounds listed in Examples which were diluted in various concentrations. Upon completion of the compounds treatment, NCI-N87 cells were cultured at 37° C. under 5% CO2 for 96 hours, and MDA-MB-468 cells were cultured at 37° C. in air for 96 hours. Subsequently, the cells were observed under microscope and drug precipitation and particular findings were investigated and recorded. And then, the 96-well plate was placed at room temperature for 30 minutes, added with 20 μL/well of CellTiter-Glo solution (Cat No. G7573, Promega) and shaken for 10 minutes, followed by being subjected to the measurement using PHERAstar™ microplate reader (BMG LABTECH) according to the supplier's general luminometer protocol. Wells where only culture liquid added without cell plating were used as a negative control, whereas wells where culture liquid containing 0.1% DMSO instead of the compounds listed in Examples were used as a positive control.

In the next experiment the test system is MDA-MB-468. The experiment in a line: Cell growth inhibition assay (CellTiter-Glo), breast cancer cell line MDA-MB-468. The note with it: Homo sapiens; MDA-MB-468 cells, 96 hours. The protocol:
as §1

T1 sequence (P40763 whole entry): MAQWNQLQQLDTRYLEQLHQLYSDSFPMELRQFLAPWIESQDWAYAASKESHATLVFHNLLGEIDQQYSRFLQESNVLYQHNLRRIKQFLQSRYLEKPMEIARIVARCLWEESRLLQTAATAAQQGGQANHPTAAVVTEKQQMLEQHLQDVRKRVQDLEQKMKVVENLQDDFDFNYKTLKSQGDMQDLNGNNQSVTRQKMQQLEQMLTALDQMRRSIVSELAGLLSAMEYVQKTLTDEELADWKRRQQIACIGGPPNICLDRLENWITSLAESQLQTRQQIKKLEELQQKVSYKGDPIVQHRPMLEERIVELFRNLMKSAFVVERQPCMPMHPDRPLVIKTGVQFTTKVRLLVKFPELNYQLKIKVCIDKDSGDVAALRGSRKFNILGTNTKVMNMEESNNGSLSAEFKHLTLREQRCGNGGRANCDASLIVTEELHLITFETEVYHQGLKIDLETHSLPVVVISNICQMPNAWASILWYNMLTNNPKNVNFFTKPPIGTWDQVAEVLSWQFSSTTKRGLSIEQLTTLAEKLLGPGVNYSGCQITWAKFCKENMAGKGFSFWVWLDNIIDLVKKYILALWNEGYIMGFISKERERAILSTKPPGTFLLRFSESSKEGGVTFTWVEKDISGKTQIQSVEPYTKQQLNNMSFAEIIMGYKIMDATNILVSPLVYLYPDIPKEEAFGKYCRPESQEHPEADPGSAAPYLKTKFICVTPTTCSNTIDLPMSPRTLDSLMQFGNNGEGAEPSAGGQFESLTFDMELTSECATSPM

For the compound `CS(=O)(=O)C1CCOc2cc3sc(C(=O)Nc4cc(Cl)nc(Oc5cccc(Cl)c5)c4)cc3cc21` (stereo not drawn) [Example 25, N-(2-chloro-6-(3-chlorophenoxy)pyridin-4-yl)-4-(methylsulfonyl)-3,4-dihydro-2H-thieno[3,2-g]chromene-7-carboxamide], the IC50 on STAT3 turned out to be 0.011 µM; in the experiment on NCI-N87, 0.01 µM; in the experiment with MDA-MB-468, 0.0049 µM.
With `CS(=O)(=O)C1CCOc2cc3sc(C(=O)Nc4cc(Cl)nc(Oc5cccc(C(F)(F)F)c5)c4)cc3cc21` (stereo not drawn) [Example 16, N-(2-chloro-6-(3-(trifluoromethyl)phenoxy)pyridin-4-yl)-4-(methylsulfonyl)-3,4-dihydro-2H-thieno[3,2-g]chromene-7-carboxamide], the results for the concentration for half-maximal inhibition (IC50) at STAT3, with NCI-N87 and in the experiment with MDA-MB-468 were 0.0051 µM, 0.021 µM and 0.0039 µM, respectively.
For `Cc1cc(Cl)ccc1Oc1cc(NC(=O)c2cc3cc4c(cc3s2)OCCC4S(C)(=O)=O)cc(Cl)n1` (stereo not drawn) [Example 21, N-(2-chloro-6-(4-chloro-2-methylphenoxy)pyridin-4-yl)-4-(methylsulfonyl)-3,4-dihydro-2H-thieno[3,2-g]chromene-7-carboxamide], in that order: 0.011 µM, 0.018 µM and 0.0051 µM.
As to `CS(=O)(=O)C1CCC(F)(F)c2cc3sc(C(=O)Nc4cc(Cl)nc(Oc5ccc(Cl)cc5)c4)cc3cc21` (stereo not drawn) [Example 14, N-(2-chloro-6-(4-chlorophenoxy)pyridin-4-yl)-8,8-difluoro-5-(methylsulfonyl)-5,6,7,8-tetrahydronaphtho[2,3-b]thiophene-2-carboxamide], the IC50 on STAT3 turned out to be 0.029 µM; in the experiment on NCI-N87, 0.16 µM; in the experiment on MDA-MB-468 it was 0.026 µM.
For `CS(=O)(=O)C1CCOc2cc3sc(C(=O)Nc4cc(Cl)nc(Oc5ccc(F)c(Cl)c5)c4)cc3cc21` (stereo not drawn) [Example 27, N-(2-chloro-6-(3-chloro-4-fluorophenoxy)pyridin-4-yl)-4-(methylsulfonyl)-3,4-dihydro-2H-thieno[3,2-g]chromene-7-carboxamide], in that order: 0.0078 µM, 0.0049 µM and 0.0029 µM.
For `Cc1cccc(Oc2cc(NC(=O)c3cc4cc5c(cc4s3)OCCC5S(C)(=O)=O)cc(Cl)n2)c1` (stereo not drawn) [Example 33, N-(2-chloro-6-(m-tolyloxy)pyridin-4-yl)-4-(methylsulfonyl)-3,4-dihydro-2H-thieno[3,2-g]chromene-7-carboxamide], the IC50 was determined as 0.0098 µM against STAT3, 0.024 µM in the experiment with NCI-N87 and 0.0093 µM with MDA-MB-468.
For `Cc1cc(Oc2cc(NC(=O)c3cc4cc5c(cc4s3)OCCC5S(C)(=O)=O)cc(Cl)n2)ccc1Cl` (stereo not drawn) [Example 20, N-(2-chloro-6-(4-chloro-3-methylphenoxy)pyridin-4-yl)-4-(methylsulfonyl)-3,4-dihydro-2H-thieno[3,2-g]chromene-7-carboxamide], in that order: 0.01 µM, 0.0094 µM and 0.0024 µM.
Take `O=C(Nc1cc(Cl)nc(Oc2ccc(Cl)cc2)c1)c1cc2cc3c(cc2s1)OCCC3N1CCCC1=O` (stereo not drawn) [Example 53, N-(2-chloro-6-(4-chlorophenoxy)pyridin-4-yl)-4-(2-oxopyrrolidin-1-yl)-3,4-dihydro-2H-thieno[3,2-g]chromene-7-carboxamide]: the IC50 on STAT3 was 5.2 µM; with NCI-N87 it was 4.4 µM; in the experiment on MDA-MB-468, 0.71 µM.
With `CS(=O)(=O)C1CCOc2cc3sc(C(=O)Nc4cc(Cl)nc(Oc5ccccc5OC(F)(F)F)c4)cc3cc21` (stereo not drawn) [Example 40, N-(2-chloro-6-(2-(trifluoromethoxy)phenoxy)pyridin-4-yl)-4-(methylsulfonyl)-3,4-dihydro-2H-thieno[3,2-g]chromene-7-carboxamide], the IC50 on STAT3 amounted to 0.0087 µM; in the experiment on NCI-N87 it was 0.023 µM; in the experiment on MDA-MB-468, 0.0086 µM.
For `N#CC1CCOc2cc3sc(C(=O)Nc4cc(Cl)nc(Oc5ccc(Cl)cc5)c4)cc3cc21` (stereo not drawn) [Example 54, N-(2-chloro-6-(4-chlorophenoxy)pyridin-4-yl)-4-cyano-3,4-dihydro-2H-thieno[3,2-g]chromene-7-carboxamide], in that order: 0.18 µM, 0.32 µM and 0.075 µM.
For `[N-]=[N+]=NC1CCOc2cc3sc(C(=O)Nc4cc(Cl)nc(Oc5ccc(Cl)cc5)c4)cc3cc21` (stereo not drawn) [Example 55, 4-azido-N-(2-chloro-6-(4-chlorophenoxy)pyridin-4-yl)-3,4-dihydro-2H-thieno[3,2-g]chromene-7-carboxamide], in that order: 0.039 µM, 1.2 µM and 0.078 µM.
For `CS(=O)(=O)C1CCOc2cc3sc(C(=O)Nc4cc(Cl)nc(Oc5ccc(Cl)cc5)c4)cc3cc21` (racemic) [Example 8, N-(2-chloro-6-(4-chlorophenoxy)pyridin-4-yl)-4-(methylsulfonyl)-3,4-dihydro-2H-thieno[3,2-g]chromene-7-carboxamide], in that order: 0.024 µM, 0.031 µM and 0.0032 µM.
`CS(=O)(=O)[C@@H]1CCOc2cc3sc(C(=O)Nc4cc(Cl)nc(Oc5ccc(Cl)cc5)c4)cc3cc21` [Example 44, (R)—N-(2-chloro-6-(4-chlorophenoxy)pyridin-4-yl)-4-(methylsulfonyl)-3,4-dihydro-2H-thieno[3,2-g]chromene-7-carboxamide]: the IC50 was 1.5 µM against STAT3, 1.8 µM with NCI-N87 and 0.086 µM in the experiment on MDA-MB-468.
Consider `CS(=O)(=O)[C@@]1(F)CCOc2cc3sc(C(=O)Nc4cc(Cl)nc(Oc5ccc(Cl)cc5)c4)cc3cc21` [Example 45, (S)—N-(2-chloro-6-(4-chlorophenoxy)pyridin-4-yl)-4-fluoro-4-(methylsulfonyl)-3,4-dihydro-2H-thieno[3,2-g]chromene-7-carboxamide], for which the IC50 is 0.0039 µM against STAT3, 0.0056 µM in the experiment with NCI-N87 and 0.0025 µM with MDA-MB-468.
As for `CS(=O)(=O)C1CCOc2cc3sc(C(=O)Nc4cc(Cl)nc(Oc5ccc(F)cc5)c4)cc3cc21` (stereo not drawn) [Example 26, N-(2-chloro-6-(4-fluorophenoxy)pyridin-4-yl)-4-(methylsulfonyl)-3,4-dihydro-2H-thieno[3,2-g]chromene-7-carboxamide], the IC50 at STAT3 worked out at 0.0073 µM; with NCI-N87, 0.0072 µM; in the experiment with MDA-MB-468, 0.0046 µM.
For `C[C@@]1(S(C)(=O)=O)CCOc2cc3sc(C(=O)Nc4cc(Cl)nc(Oc5ccc(Cl)cc5)c4)cc3cc21` [Example 48, (R)—N-(2-chloro-6-(4-chlorophenoxy)pyridin-4-yl)-4-methyl-4-(methylsulfonyl)-3,4-dihydro-2H-thieno[3,2-g]chromene-7-carboxamide], in that order: 0.15 µM, 0.79 µM and over 0.1 µM.
For `CS(=O)(=O)C1CCC(=O)c2cc3sc(C(=O)Nc4cc(Cl)nc(Oc5ccc(Cl)cc5)c4)cc3cc21` (stereo not drawn) [Example 51, N-(2-chloro-6-(4-chlorophenoxy)pyridin-4-yl)-5-(methylsulfonyl)-8-oxo-5,6,7,8-tetrahydronaphtho[2,3-b]thiophene-2-carboxamide] the same measures were 0.1 µM, 0.2 µM and 0.05 µM.
For `Cc1cccc(Oc2cc(NC(=O)c3cc4cc5c(cc4s3)OCCC5S(C)(=O)=O)cc(Cl)n2)c1F` (stereo not drawn) [Example 41, N-(2-chloro-6-(2-fluoro-3-methylphenoxy)pyridin-4-yl)-4-(methylsulfonyl)-3,4-dihydro-2H-thieno[3,2-g]chromene-7-carboxamide] the same measures were 0.011 µM, 0.021 µM and 0.012 µM.
